According to US20260055061A1, “HALOPHTHALIMIDE COMPOUNDS AND METHODS OF USE AGAINST TBI, INFLAMMATORY DISORDER, AUTOIMMUNE DISORDER, NEURODEGENERATIVE DISEASE OR VIRAL INFECTION” (The United States of America, as represented by the …, priority 2022, published 2026):

Tests used:
[1] = biological target: cereblon (CRBN/DDB1-CUL4A-Rbx1 complex) / BRD3 (Homo sapiens (Human), UniProt Q96SW2); assay: Cereblon/BRD3 binding assay (AlphaScreen / FRET)
Procedure: After 30 min of incubation with shaking at room temperature, AlphaLISA anti-FLAG Acceptor and Alpha Glutathione Donor beads (PerkinElmer) were sequentially added and then incubated for 1 hr at room temperature for each of the added chemicals. Alpha counts were thereafter read on a Synergy Neo2 (BioTek) for the analysis. Relative activity or inhibition was calculated as the highest value, which was set to 100%, and the lowest value was set to 0% after subtraction of the “blank value” from all readings.
After 30 min of incubation with shaking at room temperature, AlphaLISA anti-FLAG Acceptor and Alpha Glutathione Donor beads (PerkinElmer) were sequentially added and then incubated for 1 h at room temperature for each of the added chemicals. Alpha counts were thereafter read on a Synergy Neo2 (BioTek) for the analysis. The relative activity of the alpha signal was calculated after subtraction of the “blank value” from all readings, and the value of the vehicle group was then set as 100%.

SALL4 = SALL4 (Homo sapiens (Human), UniProt Q9UJQ4); assay: SALL4 expression in Tera-1 cells (Western blot); assay type: cell-based; settings: human Tera-1 cells; 0.01, 0.1, 1 μM; relative to GAPDH
Procedure: (§1) For Western blot analysis, total proteins were extracted using RIPA buffer (ThermoFisher Scientific, Waltham, MA) containing Halt Protease Inhibitor Cocktail (ThermoFisher Scientific). […] After incubation at 4° C. overnight, the following HRP conjugated secondary antibodies were used: (i) goat anti-rabbit IgG (ThermoFisher Scientific) for ikaros and aiolos, and (ii) goat anti-mouse IgG (ThermoFisher Scientific) for SALL4 and GAPDH. […] Antigen-antibody complexes were detected using enhanced chemiluminescence (Thermo, iBright CL1500).
(§2) Specifically, MM1.S cells were obtained from ATCC (Manassas, VA, USA), grown in RPMI media supplemented with 10% FBS, penicillin 100 U/mL, and streptomycin […], and maintained at 37° C. and 5% CO2.
as §1, with “MA, USA)” for “MA)”, “Scientific). Thereafter, the proteins were separated by gel electrophoresis and then transferred to polyvinylidene difluoride (PVDF) membranes (ThermoFisher Scientific), as described previously.” for “Scientific).”, “HRP-conjugated” for “HRP conjugated”, “Ikaros” for “ikaros”, “Aiolos,” for “aiolos,”, “(ThermoFisher Scientific,” for “(Thermo,”

Aiolos = Aiolos (Homo sapiens (Human), UniProt Q9UKT9); assay: Aiolos degradation in MM1.S cells (Western blot); assay type: cell-based; settings: 1 μM, relative to GAPDH
Procedure: as §1, §2
(§3) For Western blot analysis, total proteins were extracted using RIPA buffer (ThermoFisher Scientific, Waltham, MA, USA) containing Halt Protease Inhibitor Cocktail (ThermoFisher Scientific). Thereafter, the proteins were separated by gel electrophoresis and then transferred to polyvinylidene difluoride (PVDF) membranes (ThermoFisher Scientific), as described previously. […] Antigen-antibody complexes were detected using enhanced chemiluminescence (ThermoFisher Scientific, iBright CL1500).

Ikaros = Ikaros (Homo sapiens (Human), UniProt Q13422); assay: Ikaros degradation in MM1.S cells (Western blot); assay type: cell-based; settings: 1 μM, relative to GAPDH
Procedure: as §1, §2, §3

CCI-induced TBI mice = assay: CCI mouse model of TBI: DigiGait gait analysis; assay type: in vivo
Procedure: In vivo model of TBI: Mice were anesthetized with 2.5% tribromoethanol (Avertin: 250 mg/kg; Sigma, St. Louis, MO, USA) and placed in a stereotaxic frame (Kopf Instruments, Tujunga, CA, USA). A 4 mm craniotomy was performed using sterile procedures; the craniotomy point was selected midway between the lambda and bregma sutures and laterally midway between the central suture and the temporalis muscle. The skull fragment was then carefully removed without disruption of the underlying dura. Prior to injury induction, the tip of the impactor was angled and kept perpendicular to the exposed cortical surface. The mouse CCI instrument consisted of an electromagnetic impactor, Impact One (Leica Biosystems Inc., Buffalo Grove, IL, USA) that allows independent alteration of injury severity by controlling contact velocity and the level of cortical deformation. In these experiments, the contact velocity was set at 5.0 m/sec, the dwell time was set at 0.2 s and the deformation depth was set at 2 mm to produce a moderate TBI. The injury site was allowed to dry prior to suturing the wound. During surgery and recovery, the body temperature of the animals was maintained at 36-37° C. by using a heating pad. […] Mice were randomized following CCI to treatment with either of two doses of TFBP (16.25 mg/kg and 32.5 mg/kg, i.p.) or saline, and were dosed at 1 and 24 hr after the injury.
Behavioral assessment for motor functions and coordination: Behavioral tests were performed 1 week and 2 weeks after injury, to assess changes in motor functions and coordination. All tests were performed during the animals' light phase; cages were transported to testing rooms at least 30 min prior to testing.
Gait analysis: For the gait analysis, mice were tested on a fixed-speed treadmill apparatus (DigiGait; Mouse Specifics). Mice were habituated to the apparatus for 1 min, and then given a 1-min run at 5 cm/s. Following a 1-min rest, the treadmill speed was increased to 15 cm/s. Video was collected at high speed from a ventrally placed camera, and 3-5 s of representative gait video was selected by an experienced but blinded user for automated analysis.
In Vivo Model of TBI: TBI studies were conducted in 8-week-old male C57/BL6 mice (25-30 g; n=20), Jackson Laboratory, Bar Harbor, Maine USA. Mice were randomly assigned to four groups prior surgery, CMC+Sham, CMC+TBI, compound 30 (Low dose (LD), 14.78 mg/kg, prepared in 1% CMC in PBS)+TBI, compound 30 (High dose (HD), 29.57 mg/kg)+TBI, and evaluated the effects of compound 30 on TBI. Mice were assessed for gait function and motor coordination, balance function. Animals were subsequently evaluated for cellular changes using histological and immunohistochemistry staining. […]

[2] = tested on: LPS-induced nitrite in RAW 264.7 cells; assay: LPS-induced nitrite production in RAW 264.7 cells (Griess reagent / fluorometric kit); assay type: cell-based, mouse; settings: LPS-challenged RAW 264.7 cells, percentage of vehicle control value (control = 100%), mean ± S.E.M., n = 3
Procedure: Nitrite ion detection in drug treated […] cell culture media: To measure the levels of nitrite ion NO2—) the Griess Reagent System (Promega, Madison, WI, Cat #G2930) was utilized. The protocol followed was that recommended by the manufacturer. In brief a NO2— ion standard curve was prepared in culture media of the same composition to that used for the cell culture study. The concentration range of the standard curve was from 1.5 µM to 100 µM. Equal volumes (50 μL) of standards and unknown samples were added to clear 96 well plates in duplicate. Then 50 μL of sulfanilamide solution was added to each well and the plate was covered and incubated in the dark for 10 min. After the incubation period 50 μL of N-1-napthylethylenediamine dihydrochloride solution was added to each well and the plate was incubated in dark for a further 10 min. After this incubation, the plate was read at 550 nm on a SPECTRAmax PLUS plate reader and the absorbances were used to generate a NO2— standard curve and the NO2— ion levels of the unknown samples are determined using SoftMax Pro V5, Molecular Devices.
Most neurons are highly vulnerable to RNS and ROS. Nitric oxide (NO) is one of RNSs, which is very short lived and cannot be readily measured. However, nitrite is a stable end product of nitric oxide metabolism. Therefore, nitrite acts as a surrogate measure of NO. The Griess Reagent System (Promega Corporation, Madison, WI) can be applied to measure nitrite levels in culture media following the manufacturer's protocol, and this system was used in the present study as it is a more sensitive assay compared to quantifying actions on TNF-α by ELISA assay. […] This challenge induces high level of TNF-α protein accompanied by a robust generation of nitrite.
(§4) Cells were propagated as described by ATCC guidelines.

TNF-α = assay: LPS-induced TNF-α production in RAW 264.7 cells (ELISA); assay type: cell-based, mouse; settings: LPS-challenged RAW 264.7 cells, percentage of vehicle control value (control = 100%), mean ± S.E.M., n = 3
Procedure: Enzyme-linked immunosorbent assay for TNF-α protein: Media TNF-α levels were measured by use of the Biolegend ELISA MAX Set Delux ELISA (#430904). The protocol used was that recommended by the manufacturer. In brief, a day prior to performing the assay, a 96 well plate was coated with a capture antibody directed against TNF-α. The following day the assay plate was washed and blocked with the kit blocking agent for 1 h while being mixed on a plate shaker at 200 rpm (all incubations were mixed at 200 rpm unless stated otherwise). A TNF-α protein standard curve was prepared in the assay diluent following the kit instructions and unknown media samples were likewise diluted in the same assay diluent. After blocking, the plate was washed and then both the standards and unknown media samples were added to the plate in duplicate. The standards and unknown samples were incubated for 2 h. After the incubation, the plate was washed and then the biotin labeled detection antibody was added to each well and incubated for a further 1 h. After this incubation, the avidin-HRP conjugate complex was added to each well and incubated for 30 min. The plate was washed and the chromogenic substrate 3,3′,5,5′-tetramethylbenzidine solution was added to each well. At this point the plate was covered and incubated in the dark for 15 min, with no mixing. After 15 min the chromogenic reaction was stopped by the addition of 2 N H2SO4 and the absorbance was read at 450 nm and for background subtractions at 570 nm, on a SPECTRAmax PLUS plate reader. The absorbances were used to generate a TNF-α a protein standard curve and the protein levels in the unknown samples were determined using SoftMax Pro V5, Molecular Devices.
as §4

SARS-CoV-2 = assay: Anti-SARS-CoV-2 activity (FIG. 6); assay type: cell-based
[3] = Cytotoxicity in the anti-SARS-CoV-2 evaluation (FIG. 6); assay type: cell-based; settings: 25 μM
RAW 264.7 cells = assay: Cell viability of drug treated RAW 264.7 cells (CellTiter 96 AQueous One, MTS); settings: RAW 264.7 cells, percentage of vehicle control value, mean ± S.E.M., n = 3
Procedure: Assessments of drug anti-TNF-α and nitric oxide generation in RAW 264.7 cells: RAW 264.7 cells were purchased from ATCC Manassas, VA, USA). The cells were grown in DMEM media (Invitrogen, DMEM, high glucose, GlutaMAX Supplement, pyruvate, #10569-010) supplemented with 10% FBS (Invitrogen, Fetal Bovine Serum, qualified, heat inactivated, #16140-071) with penicillin and streptomycin (Invitrogen, Penicillin-Streptomycin (10,000 U/mL), #15140-122) and were maintained at 37 C and 5% CO2. The cells were grown to 75%-85% confluence on 10 cm plates (corning-Fal-con, #353003) following the protocol described by ATTC. to assess for drug effects on LPS-induced markers of inflammation, namely TNF-α protein and nitrite ion levels (NO2, a stable end-product of nitric oxide metabolism) cells were seeded into 24 well (VWR, #10062-896) at a density of 200×10^3 cells per well. On each plate there was one blank well where no cells were added yet culture media in the well was treated similarly to wells with cells (n=1). The blank well media was used for background subtraction for various downstream assays. twenty-four hours after seeding the plate the seeding media was replaced with fresh media. Two hours after this the cells were exposed to a range of concentrations of drug test-compound(s) dissolved in 100% tissue culture grade dimethyl sjloxide (DMSO, SIGMA #D2650). Drug stocks were prepared in a 200 times more concentrated stock in DMSO. The final concentration of DMSO added to the cells was 0.5%. The effects of each concentration of drug were assessed in 4 wells per concentration in the 24 well plate (n=3 #-4). On each plate one set of wells were assigned as drug-vehicle control (i.e. DMSO), one test compound was assessed on one 24 well plate. […] One hour after the drugs were added the cells were challenged with lipopolysaccharide (LPS, SIGMA, serotype 055:B5) at a final concentration of 60 ng/ml. Twenty to twenty-four hours after the cells were challenged with LPS the culture media was collected and utilized for the measurement of markers of inflammation.
Cellular viability assessment of drug treated RAW 264.7 cells: RAW 264.7 cell viability was determined by use of the CellTiter 96 AQueous One Solution Cell Proliferation Assay (Promega, Madison, WI). Changes in cellular health status were determined by use of indirect measures related to the formation of a colored tetrazolium dye product that can be measured spectrophotometrically at 490 nm. An increase in absorbance at 490 nm is indicative of an increase in numbers of healthy cells; similarly a reduction in absorbance is indicative of a reduction of healthy cells. After the culture media was harvested for use in TNF-α and NO2— ion assays, the media was replaced with 0.5 mL of fresh media plus 100 μL of the cell viability reaction mixture. After a 20-30 min incubation at 37° C. with 5% CO2 the absorbance at 490 nm was obtained using an infinite M200 PRO plate reader (TECAN, USA).
Statistical analyses for RAW-derived assays: Data are expressed as a percentage change from the DMSO-vehicle control measurements. Measurements are expressed as mean±standard errors, where the n number represents the number of wells in a 24 well plate. Due to the presence of one blank control well on each plate, for some drug concentrations the n number is 3 # and not 4. Statistical comparisons were undertaken by use of a One-Way ANOVA with appropriate Bonferroni corrections for multiple comparisons, as required (GraphPad InStat Version 3.05). P values of <0.05 are considered to be of statistical significance.
RAW 264.7 cell culture: RAW 264.7 mouse cells were purchased from ATCC (Manassas, VA, USA) and grown in DMEM media supplemented with 10% FCS, penicillin 100 U/ml and streptomycin 100 μg/ml (ThermoFisher Scientific, Asheville, NC, USA). The cells were maintained at 37° C. and 5% CO2.

Chain of cereblon (CRBN/DDB1-CUL4A-Rbx1 complex) / BRD3 (Q96SW2 whole entry): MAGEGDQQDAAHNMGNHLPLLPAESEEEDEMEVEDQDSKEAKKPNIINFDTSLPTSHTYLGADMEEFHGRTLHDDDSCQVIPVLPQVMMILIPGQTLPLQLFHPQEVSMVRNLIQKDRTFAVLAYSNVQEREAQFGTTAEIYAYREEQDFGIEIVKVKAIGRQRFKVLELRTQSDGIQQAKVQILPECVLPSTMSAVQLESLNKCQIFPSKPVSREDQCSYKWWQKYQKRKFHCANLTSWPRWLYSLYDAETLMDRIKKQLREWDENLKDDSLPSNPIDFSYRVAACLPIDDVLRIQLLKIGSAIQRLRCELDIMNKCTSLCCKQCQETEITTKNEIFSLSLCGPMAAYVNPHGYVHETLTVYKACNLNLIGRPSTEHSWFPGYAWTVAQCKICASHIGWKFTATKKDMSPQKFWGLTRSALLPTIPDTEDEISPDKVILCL
Chain of cereblon (CRBN/DDB1-CUL4A-Rbx1 complex) / BRD3 (Q16531 whole entry partner): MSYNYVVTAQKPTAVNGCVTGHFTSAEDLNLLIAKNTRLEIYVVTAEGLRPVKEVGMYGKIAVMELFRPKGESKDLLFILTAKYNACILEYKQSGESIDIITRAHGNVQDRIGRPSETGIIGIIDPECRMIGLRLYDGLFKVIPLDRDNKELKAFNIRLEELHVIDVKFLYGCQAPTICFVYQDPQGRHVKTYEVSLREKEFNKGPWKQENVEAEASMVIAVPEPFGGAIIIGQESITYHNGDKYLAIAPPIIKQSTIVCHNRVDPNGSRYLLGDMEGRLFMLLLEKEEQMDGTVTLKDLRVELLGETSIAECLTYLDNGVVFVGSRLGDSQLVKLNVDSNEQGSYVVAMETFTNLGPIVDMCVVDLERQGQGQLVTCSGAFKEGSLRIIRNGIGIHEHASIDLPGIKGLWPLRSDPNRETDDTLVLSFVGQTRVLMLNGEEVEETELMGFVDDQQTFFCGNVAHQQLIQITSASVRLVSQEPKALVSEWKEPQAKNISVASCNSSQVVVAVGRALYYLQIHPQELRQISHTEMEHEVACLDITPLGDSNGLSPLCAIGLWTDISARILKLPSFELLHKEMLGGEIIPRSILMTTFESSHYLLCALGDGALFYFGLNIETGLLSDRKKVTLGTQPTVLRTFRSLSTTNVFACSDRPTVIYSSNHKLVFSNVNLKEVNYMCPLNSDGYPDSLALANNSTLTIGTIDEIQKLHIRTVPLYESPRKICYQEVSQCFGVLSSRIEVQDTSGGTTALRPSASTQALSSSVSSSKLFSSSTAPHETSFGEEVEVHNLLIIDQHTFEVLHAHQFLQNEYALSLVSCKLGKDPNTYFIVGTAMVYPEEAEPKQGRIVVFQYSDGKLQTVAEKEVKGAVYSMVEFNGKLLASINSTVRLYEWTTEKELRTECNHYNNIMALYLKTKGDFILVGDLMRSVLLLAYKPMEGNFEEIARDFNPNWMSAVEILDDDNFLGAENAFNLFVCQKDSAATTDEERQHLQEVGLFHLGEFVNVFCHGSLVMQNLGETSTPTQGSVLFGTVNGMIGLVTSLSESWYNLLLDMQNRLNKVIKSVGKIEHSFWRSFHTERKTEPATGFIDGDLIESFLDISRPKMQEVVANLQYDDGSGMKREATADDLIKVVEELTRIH
Chain of cereblon (CRBN/DDB1-CUL4A-Rbx1 complex) / BRD3 (Q13619 whole entry partner): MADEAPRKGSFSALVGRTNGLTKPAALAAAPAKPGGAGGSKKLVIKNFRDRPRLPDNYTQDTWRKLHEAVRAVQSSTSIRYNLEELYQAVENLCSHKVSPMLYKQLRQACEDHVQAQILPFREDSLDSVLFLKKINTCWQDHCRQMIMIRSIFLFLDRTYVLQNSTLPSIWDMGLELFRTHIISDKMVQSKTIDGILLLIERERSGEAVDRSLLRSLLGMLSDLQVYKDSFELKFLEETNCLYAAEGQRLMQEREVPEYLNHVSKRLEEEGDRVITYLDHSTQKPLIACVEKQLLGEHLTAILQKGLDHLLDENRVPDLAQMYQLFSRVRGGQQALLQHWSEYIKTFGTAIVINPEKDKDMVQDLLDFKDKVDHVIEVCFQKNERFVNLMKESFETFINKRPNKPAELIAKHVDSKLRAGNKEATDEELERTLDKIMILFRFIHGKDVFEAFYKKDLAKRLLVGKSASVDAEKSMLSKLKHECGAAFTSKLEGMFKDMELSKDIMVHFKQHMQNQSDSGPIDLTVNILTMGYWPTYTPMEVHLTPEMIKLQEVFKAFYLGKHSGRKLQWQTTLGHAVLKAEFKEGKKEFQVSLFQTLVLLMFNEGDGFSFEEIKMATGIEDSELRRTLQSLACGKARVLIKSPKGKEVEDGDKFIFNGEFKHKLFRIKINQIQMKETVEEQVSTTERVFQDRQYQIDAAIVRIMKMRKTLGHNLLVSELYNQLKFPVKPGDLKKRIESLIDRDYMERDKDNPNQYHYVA
Chain of cereblon (CRBN/DDB1-CUL4A-Rbx1 complex) / BRD3 (P62877 whole entry partner): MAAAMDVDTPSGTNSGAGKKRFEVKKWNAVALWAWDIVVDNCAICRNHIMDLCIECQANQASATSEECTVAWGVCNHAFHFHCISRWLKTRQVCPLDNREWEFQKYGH

Compound | IC50 ([1]; Example 6, FIG. 28A) [nM] | cereblon binding (in words) ([1]; cereblon/BRD3 binding FRET assay) | SALL4 levels (SALL4) | Aiolos levels (Aiolos) | Ikaros levels (Ikaros) | gait % of brake phase (CCI-induced TBI mice; high dose 29.57 mg/kg) | gait propel time and % of propel phase (CCI-induced TBI mice; high dose 29.57 mg/kg) | gait brake time (CCI-induced TBI mice; low dose 14.78 mg/kg, 1 and 2 weeks after TBI) | nitrite level, % of vehicle control ([2]; 1 μM) [%] | nitrite level, % of vehicle control ([2]; 10 μM) [%] | TNF-α % Δ (TNF-α; 1 μM) [%] | TNF-α % Δ (TNF-α; 10 μM) [%] | SARS-CoV-2 inhibitory activity (SARS-CoV-2) | cytotoxicity [3] | Cell Viability % Δ (RAW 264.7 cells; 1 μM) [%] | Cell Viability % Δ (RAW 264.7 cells; 10 μM) [%]
4-amino-7-fluoro-2-(2-oxo-6-thioxopiperidin-3-yl)-3-thioxoisoindolin-1-one [Compound 30] | 2660 | potently bind to cereblon | no significant effect | no significant effect | no significant effect | impairment of brake phase was ameliorated | significantly mitigate propel time and % of propel phase | significantly mitigated the deficit of brake time | – | – | – | – | – | – | – | –
C[C@@H]1[C@@H](N2C(=O)c3c(F)ccc(F)c3C2=O)C[C@H]2C[C@@H]1C2(C)C [Compound 18, 4,7-Difluoro-2-((1S,2S,3S,5R)-2,6,6-trimethylbicyclo[3.1.1]heptan-3-yl) isoindoline-1,3-dione] | – | – | – | – | – | – | – | – | 96 ± 4 | 71 ± 4 | 101 ± 5 | 89 ± 5 | potent SARS-CoV-2 inhibitory activity | preliminarily acceptable cytotoxicity | 102 ± 4 | 76 ± 5
